# Measured values: patent US20060094020A1, “Methods and compositions for determining resistance or susceptibility of HIV-1 to stavudine” (priority 2004, published 2006)
# Tested on: HIV-1 (patient-derived viruses comprising the K65R mutation in RT)
# Test: Resistance test vector (PHENOSENSE) phenotypic drug susceptibility assay, luciferase readout, single round of replication in 293 cells
# Assay type: cell-based
# Conditions: 1.7 fold is the threshold for d4T resistance
# Experimental: In preferred embodiments, the phenotypic analysis of d4T resistance or susceptibility is performed using PHENOSENSE™ (ViroLogic Inc., South San Francisco, Calif.). See Petropoulos et al., 2000, Antimicrob. Agents Chemother. 44:920-928; U.S. Pat. Nos. 5,837,464 and 6,242,187. PHENOSENSE™ is a phenotypic assay that achieves the benefits of phenotypic testing and overcomes the drawbacks of previous assays. Because the assay has been automated, PHENOSENSE™ provides high throughput methods under controlled conditions for determining replication capacity of a large number of individual viral isolates.
# The assay can be performed by first co-transfecting host cells with RTV DNA and a plasmid that expresses the envelope proteins of another retrovirus, for example, amphotropic murine leukemia virus (MLV). Following transfection, viral particles can be harvested from the cell culture and used to infect fresh target cells in the presence of varying amounts of anti-viral drug(s). The completion of a single round of viral replication in the fresh target cells can be detected by the means for detecting replication contained in the vector. […] The susceptibility of an HIV, or population of HIV, can be determined by measuring the concentration of antiviral drug at which the luciferase activity detected is half-maximal. […]
smiles,measurement,setting,value
"Cc1cn([C@H]2C=C[C@@H](CO)O2)c(=O)[nH]c1=O [d4T, stavudine]",IC50 fold higher than wild-type,most of the viruses comprising only the K65R mutation in RT (202 viruses),less than 1.7 fold
same,IC50 fold higher than wild-type,some of the viruses comprising only the K65R mutation in RT (202 viruses),greater than 1.7 fold
